Laboratory results as given in patent US12338220B2, “Antiviral pyrazolopiridinone compounds” (Novartis AG, priority 2019, dated 2025).
Read-outs that look alike come from different tables or passages of the source.

Assays:
CMV-polymerase = CMV-polymerase (Human cytomegalovirus (strain AD169) (HHV-5) (Human herpesvirus 5), UniProt P08546); test: biochemical
CMV = test: microbe, parasite or virus in culture; format: cell-based; conditions: Human betaherpesvirus 5, 72 h, read-out: CMV-Luc Cellular EC50, NN-NHDF cells, MOI 1, 72 hrs
[1] = read-out: CMV-polymerase Biochemical IC50
[2] = CMV-polymerase Biochemical IC50

Structure (SMILES)	IC50 (CMV-polymerase; [1])	EC50 (CMV)	IC50 (CMV-polymerase; [2])
Cn1nc(C(=O)NCc2ccc(Cl)nc2)c2c1C(=O)N(CC1(S(=O)(=O)C(C)(C)CO)CC1)CC2 [Example 51, N-((6-Chloropyridin-3-yl)methyl)-6-((1-((1-hydroxy-2-methylpropan-2-yl)sulfonyl)cyclopropyl)methyl)-1-methyl-7-oxo-4,5,6,7-tetrahydro-1H-pyrazolo[3,4-c]pyridine-3-carboxamide]	6 nM	172 nM	–
Cn1nc(C(=O)NOc2ccc(Cl)cc2)c2c1C(=O)N(CC1(S(=O)(=O)C3(C)CC3)CC1)CC2 [Example 37, N-(4-Chlorophenoxy)-1-methyl-6-((1-((1-methylcyclopropyl)sulfonyl)cyclopropyl)methyl)-7-oxo-4,5,6,7-tetrahydro-1H-pyrazolo[3,4-c]pyridine-3-carboxamide]	7 nM	105 nM	–
CN(Cc1ccc(C#N)cc1)C(=O)c1nn(C)c2c1CCN(CC1(S(=O)(=O)C3CC3)CC1)C2=O [Example 6, N-(4-Cyanobenzyl)-6-((1-(cyclopropylsulfonyl)cyclopropyl)methyl)-N,1-dimethyl-7-oxo-4,5,6,7-tetrahydro-1H-pyrazolo[3,4-c]pyridine-3-carboxamide]	30 nM	770 nM	–
Cn1nc(-c2cn(Cc3ccc(C#N)cc3)nn2)c2c1C(=O)N(CC1(S(=O)(=O)C3CC3)CC1)CC2 [Example 35, 4-((4-(6-((1-(Cyclopropylsulfonyl)cyclopropyl)methyl)-1-methyl-7-oxo-4,5,6,7-tetrahydro-1H-pyrazolo[3,4-c]pyridin-3-yl)-1H-1,2,3-triazol-1-yl)methyl)benzonitrile]	–	38 nM	3 nM
Cn1nc(C(=O)NCc2ccc(Cl)cc2)c2c1C(=O)N(CC1(S(=O)(=O)Nc3ccccn3)CC1)CC2 [Example 158, N-(4-Chlorobenzyl)-1-methyl-7-oxo-6-((1-(N-(pyridin-2-yl)sulfamoyl)cyclopropyl)methyl)-4,5,6,7-tetrahydro-1H-pyrazolo[3,4-c]pyridine-3-carboxamide]	3 nM	37 nM	–
CC1(S(=O)(=O)C2(CN3CCc4c(C(=O)NCc5ccc(Cl)cc5)nn(CCOCCN)c4C3=O)CC2)CC1 [Example 223, 1-(2-(2-Aminoethoxy)ethyl)-N-(4-chlorobenzyl)-6-((1-((1-methylcyclopropyl)sulfonyl)cyclopropyl)methyl)-7-oxo-4,5,6,7-tetrahydro-1H-pyrazolo[3,4-c]pyridine-3-carboxamide]	–	49 nM	5 nM
Cn1nc(C(=O)NCc2ccc(C#N)cc2)c2c1C(=O)N(CC1(S(=O)(=O)C(C)(C)CNCCO)CC1)CC2 [Example 69, N-(4-Cyanobenzyl)-6-((1-((1-((2-hydroxyethyl)amino)-2-methylpropan-2-yl)sulfonyl)cyclopropyl)methyl)-1-methyl-7-ox0-4,5,6,7-tetrahydro-1H-pyrazolo[3,4-c]pyridine-3-carboxamide]	1 nM	57 nM	–
Cn1nc(C(=O)NCc2ccc(C#N)cc2)c2c1C(=O)N(CC1(S(=O)(=O)[C@H]3C[C@H](O)C3)CC1)CC2 [Example 120, N-(4-Cyanobenzyl)-6-((1-(((1r,3r)-3-hydroxycyclobutyl)sulfonyl)cyclopropyl)methyl)-1-methyl-7-oxo-4,5,6,7-tetrahydro-1H-pyrazolo[3,4-c]pyridine-3-carboxamide]	–	151 nM	3 nM
Cn1nc(C(=O)NCc2ccc(C#N)cc2)c2c1C(=O)N(CC1(S(=O)(=O)Nc3cc(C4CC4)on3)CC1)CC2 [Example 167, N-(4-Cyanobenzyl)-6-((1-(N-(5-cyclopropylisoxazol-3-yl)sulfamoyl)cyclopropyl)methyl)-1-methyl-7-oxo-4,5,6,7-tetrahydro-1H-pyrazolo[3,4-c]pyridine-3-carboxamide]	4 nM	517 nM	–
Cn1nc(-c2nc(Cc3ccc(C#N)cc3)no2)c2c1C(=O)N(CC1(S(=O)(=O)C3CC3)CC1)CC2 [Example 27, 4-((5-(6-((1-(Cyclopropylsulfonyl)cyclopropyl)methyl)-1-methyl-7-oxo-4,5,6,7-tetrahydro-1H-pyrazolo[3,4-c]pyridin-3-yl)-1,2,4-oxadiazol-3-yl)methyl)benzonitrile]	7 nM	211 nM	–
COC1CN(CC(C)(C)S(=O)(=O)C2(CN3CCc4c(C(=O)NCc5ccc(C#N)cc5)nn(C)c4C3=O)CC2)C1 [Example 66, N-(4-Cyanobenzyl)-6-((1-((1-(3-methoxyazetidin-1-yl)-2-methylpropan-2-yl)sulfonyl)cyclopropyl)methyl)-1-methyl-7-oxo-4,5,6,7-tetrahydro-1H-pyrazolo[3,4-c]pyridine-3-carboxamide]	2 nM	88 nM	–
Cn1nc(C(=O)NCc2ccc(Cl)cc2)c2c1C(=O)N(CC1(S(=O)(=O)C3(C(O)CN)CC3)CC1)CC2 (stereo not shown) [Example 209, 6-((1-((1-(2-Amino-1-hydroxyethyl)cyclopropyl)sulfonyl)cyclopropyl)methyl)-N-(4-chlorobenzyl)-1-methyl-7-oxo-4,5,6,7-tetrahydro-1H-pyrazolo[3,4-c]pyridine-3-carboxamide]	1 nM	10 nM	–
CC(C)(O)Cn1nc(C(=O)NCc2ccc(Cl)cc2)c2c1C(=O)N(CC1(S(C)(=O)=O)CC1)CC2 [Example 231, N-(4-Chlorobenzyl)-1-(2-hydroxy-2-methylpropyl)-6-((1-(methylsulfonyl)cyclopropyl)methyl)-7-oxo-4,5,6,7-tetrahydro-1H-pyrazolo[3,4-c]pyridine-3-carboxamide]	7 nM	88 nM	–
CC(C)(O)Cn1nc(C(=O)NCc2ccc(C#N)cc2)c2c1C(=O)N(CC1(S(=O)(=O)C3CC3)CC1)CC2 [Example 230, N-(4-Cyanobenzyl)-6-((1-(cyclopropylsulfonyl)cyclopropyl)methyl)-1-(2-hydroxy-2-methylpropyl)-7-oxo-4,5,6,7-tetrahydro-1H-pyrazolo[3,4-c]pyridine-3-carboxamide]	1 nM	31 nM	–
C[C@H](NC(=O)c1nn(C)c2c1CCN(CC1(S(=O)(=O)C(C)(C)CO)CC1)C2=O)c1ccc(C#N)cc1 [Example 54, (S)-N-(1-(4-Cyanophenyl)ethyl)-6-((1-((1-hydroxy-2-methylpropan-2-yl)sulfonyl)cyclopropyl)methyl)-1-methyl-7-oxo-4,5,6,7-tetrahydro-1H-pyrazolo[3,4-c]pyridine-3-carboxamide]	2 nM	53 nM	–
COc1ccc(C)nc1NS(=O)(=O)C1(CN2CCc3c(C(=O)NCc4ccc(C#N)cc4)nn(C)c3C2=O)CC1 [Example 160, N-(4-Cyanobenzyl)-6-((1-(N-(3-methoxy-6-methylpyridin-2-yl)sulfamoyl)cyclopropyl)methyl)-1-methyl-7-oxo-4,5,6,7-tetrahydro-1H-pyrazolo[3,4-c]pyridine-3-carboxamide]	6 nM	118 nM	–
Cn1nc(C(=O)NCc2ccc(Cl)cc2)c2c1C(=O)N(CC1(S(=O)(=O)NCCO)CC1)CC2 [Example 143, N-(4-Chlorobenzyl)-6-((1-(N-(2-hydroxyethyl)sulfamoyl)cyclopropyl)methyl)-1-methyl-7-oxo-4,5,6,7-tetrahydro-1H-pyrazolo[3,4-c]pyridine-3-carboxamide]	19 nM	138 nM	–
